Laboratory results as given in patent publication US12285408B2, “Methods and compositions for the treatment of snake bite” (priority 2021, dated 2025).
Entries after “also recorded” stand apart in the source; their conditions may differ.

Experiments:
Echis ocellatus venom = test: Murine preincubation (co-incubation) model of venom lethality, intravenous, with TAT ELISA; assay type: in vivo, CD-1 mice; details: 45 μg venom (2.5×LD50) preincubated 30 min at 37° C. with 60 μg of each drug, i.v., 6 h monitoring, n=5
Procedure: The intravenous median lethal dose (venom LD50) for E. ocellatus (Nigeria) of 17.85 μg per mouse was previously determined. Mice were challenged with 45 μg of E. ocellatus venom (2.5×the intravenous LD50 dose) in a refined version of the World Health Organization-recommended antivenom efficacy experiments. Groups of five male 18-22 g CD-1 mice (Charles River, UK) received experimental doses that consisted of either (a) venom only (2.5×LD50 dose), (b) venom and drug (60 μg) or (c) drug only. All experimental doses were prepared to a volume of 200 μl in PBS and incubated at 37° C. for 30 mins prior to their intravenous injection via the tail vein. Animals were monitored for 6 hours and euthanized upon observation of humane endpoints (seizure, pulmonary distress, paralysis, hemorrhage). Deaths, time of death, and survivors were recorded; where “deaths/time of death” represents the implementation of euthanasia based on the defined humane endpoints.
(§1) The same murine preincubation model was used to assess the efficacy of distinct toxin family inhibiting drugs in comparison with a drug combination. […] All experimental doses were prepared to a volume of 200 μl in PBS and incubated at 37° C. for 30 min prior to their intravenous injection via the tail vein. Animals were monitored for 6 h, and euthanized via rising concentrations of CO2 upon observation of previously defined humane end points that are predicators of lethality (e.g., seizure, pulmonary distress, paralysis, hemorrhage). Deaths, time of death, and survivors were recorded; where death/time of death represents the implementation of euthanasia based on defined humane end points.
Strong drug hits, those defined as inhibiting >80% of the venom activity in the previously described in vitro metalloproteinase assay (FIG. 1), were next progressed into murine preclinical efficacy studies, to assess their ability to prevent venom-induced lethality in vivo. We used an established in vivo model of envenoming to test the efficacy of the seven snake venom metalloproteinase toxin inhibitors identified. This model consisted of the preincubation of the test drug with venom, followed by intravenous injection of the mixture into groups of five male CD-1 mice (18-20 g) via the tail vein followed by 6 hour monitoring, and is based on principles laid out in the gold standard method of preclinical efficacy recommended by the World Health Organization.
We used an established in vivo model of envenoming^41,42 to test the efficacy of small molecule toxin inhibitors. […]

A. contortrix venom = test: Murine preincubation model of venom lethality, North American pit viper venom; assay type: in vivo, CD-1 mice; details: 2.5×LD50 A. contortrix venom preincubated with 60 μg of each drug, i.v., 6 h, n=5
Procedure: as §1, with “Thereafter, the” for “The”, “animal” for “preincubation”, “explore” for “assess”, “the same snake venom metalloproteinase and phospholipase A2” for “distinct toxin family”, “as solo and combination treatments against North American pit viper venoms. The intravenous median lethal dose (venom LD50) for C. atrox, C. scutulatus, S. miliariius and A. contortrix venoms was previously determined (3.79 μg, 0.17 μg, 4.87 μg and 4.99 μg per mouse, respectively).” for “in comparison with a drug combination.”, “As described above, all” for “All”
(§2) These snake species were selected for their taxonomic diversity and clinical importance in the USA, namely: 1) Crotalus atrox (Western diamondback), which is found across the southwest USA and into Mexico and is thought to be the most common cause of snakebite envenoming in USA, 2) Crotalus scutulatus (Mojave rattlesnake), which is also found across the southwest USA and into Mexico, 3) Sistrurus miliarius (pygmy rattlesnake), which is found in the South-East USA, and 4) Agkistrodon contortrix (Eastern copperhead), which is found in central and eastern USA. […] The drug treatments consisted of: DMPS, marimastat, or varespladib as solo drug treatments, or a DMPS and varespladib combination, or a marimastat and varespladib combination.

C. atrox venom = test: as above; assay type: in vivo, CD-1 mice; details: 2.5×LD50 C. atrox venom preincubated with 60 μg of each drug, i.v., 6 h, n=5
Procedure: as §1, with “Thereafter, the” for “The”, “animal” for “preincubation”, “explore” for “assess”, “the same snake venom metalloproteinase and phospholipase A2” for “distinct toxin family”, “as solo and combination treatments against North American pit viper venoms. The intravenous median lethal dose (venom LD50) for C. atrox, C. scutulatus, S. miliariius and A. contortrix venoms was previously determined (3.79 μg, 0.17 μg, 4.87 μg and 4.99 μg per mouse, respectively).” for “in comparison with a drug combination.”, “As described above, all” for “All”
as §2

C. scutulatus venom = test: as above; assay type: in vivo, CD-1 mice; details: 2.5×LD50 C. scutulatus venom preincubated with 60 μg of each drug, i.v., 6 h, n=5
Procedure: as §1, with “Thereafter, the” for “The”, “animal” for “preincubation”, “explore” for “assess”, “the same snake venom metalloproteinase and phospholipase A2” for “distinct toxin family”, “as solo and combination treatments against North American pit viper venoms. The intravenous median lethal dose (venom LD50) for C. atrox, C. scutulatus, S. miliariius and A. contortrix venoms was previously determined (3.79 μg, 0.17 μg, 4.87 μg and 4.99 μg per mouse, respectively).” for “in comparison with a drug combination.”, “As described above, all” for “All”
as §2

[1] = cited from earlier work

| Compound | survival / protection against venom-induced lethality (Echis ocellatus venom) | protection against venom lethality (A. contortrix venom) | protection against venom lethality (C. atrox venom) | protection against venom lethality (C. scutulatus venom) | side effects ([1]; single doses of up to 800 mg, bidaily 200 mg for 6.5 days, or 75 mg daily for 28 days) | tolerability ([1]; Phase 1 and 2) | risk of major adverse cardiovascular events ([1]; Phase 2B, same daily dose, >300 patients for >6 months) | risk of myocardial infarction ([1]; Phase 3, acute coronary syndrome patients, 500 mg oral daily) |
| --- | --- | --- | --- | --- | --- | --- | --- | --- |
| O=S(=O)(O)CC(S)CS (stereo not shown) [DMPS, 2,3-dimercapto-1-propanesulfonic acid] | all animals surviving; also recorded: complete protection | Neither drug provided protection | Neither drug provided protection | some limited protection |  |  |  |  |
| CNC(=O)[C@@H](NC(=O)[C@H](CC(C)C)[C@H](O)C(=O)NO)C(C)(C)C [marimastat] | only one death; also recorded: remaining four survived | Neither drug provided protection | Neither drug provided protection | some limited protection | no notable side effects |  |  |  |
| CCc1c(C(=O)C(N)=O)c2c(OCC(=O)O)cccc2n1Cc1ccccc1 [varespladib] | failed to prevent lethality over the full experimental time course | survived for longer periods of time than the venom only controls | survived for longer periods of time than the venom only controls | survive the duration of the experiment |  | well tolerated | no greater risk of major adverse cardiovascular events | greater risk of myocardial infarction than those receiving placebo |
